Assay results reported in PubChem BioAssay (NCI).
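Interpolation was linear, between the two tested concentrations surrounding the appropriate level; five concentrations were tested over 48 hours in 96-well plates. GI50 marks 50% less growth. The concentration for full growth arrest is given as TGI.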

Experiments:
Assay in all cases: DTP human tumour cell line panel, 48 h
MDA-MB-435 = test system: MDA-MB-435
BT-549 breast = test system: BT-549 breast
SNB-19 CNS = test system: SNB-19 CNS
DU-145 prostate = test system: DU-145 prostate
HOP-92 NSCLC = test system: HOP-92 NSCLC
IGROV1 ovarian = test system: IGROV1 ovarian
SR leukemia = test system: SR leukemia
SF-295 CNS = test system: SF-295 CNS
HCT-116 colon = test system: HCT-116 colon
EKVX NSCLC = test system: EKVX NSCLC
M14 melanoma = test system: M14 melanoma
UACC-257 melanoma = test system: UACC-257 melanoma
A549 NSCLC = test system: A549 NSCLC
OVCAR-4 ovarian = test system: OVCAR-4 ovarian
SF-268 CNS = test system: SF-268 CNS
KM12 colon = test system: KM12 colon
T-47D breast = test system: T-47D breast
MDA-MB-231 breast = test system: MDA-MB-231 breast
HL-60(TB) leukemia = test system: HL-60(TB) leukemia
SK-MEL-2 melanoma = test system: SK-MEL-2 melanoma
CAKI-1 renal = test system: CAKI-1 renal
NCI-H522 lung = test system: NCI-H522 lung
786-0 renal = test system: 786-0 renal
SK-OV-3 ovarian = test system: SK-OV-3 ovarian
CCRF-CEM leukemia = test system: CCRF-CEM leukemia
SK-MEL-5 melanoma = test system: SK-MEL-5 melanoma
NCI-H226 lung = test system: NCI-H226 lung
OVCAR-5 ovarian = test system: OVCAR-5 ovarian
MALME-3M melanoma = test system: MALME-3M melanoma
HCT-15 colon = test system: HCT-15 colon
RPMI-8226 leukemia = test system: RPMI-8226 leukemia
LOX IMVI melanoma = test system: LOX IMVI melanoma
OVCAR-8 ovarian = test system: OVCAR-8 ovarian
TK-10 renal = test system: TK-10 renal
MOLT-4 leukemia = test system: MOLT-4 leukemia
HOP-62 NSCLC = test system: HOP-62 NSCLC
OVCAR-3 ovarian = test system: OVCAR-3 ovarian
NCI-H460 lung = test system: NCI-H460 lung
UO-31 renal = test system: UO-31 renal
RXF 393 renal = test system: RXF 393 renal
PC-3 prostate = test system: PC-3 prostate
SW-620 colon = test system: SW-620 colon
U251 CNS = test system: U251 CNS
HCC-2998 colon = test system: HCC-2998 colon
MCF7 breast = test system: MCF7 breast
A498 renal = test system: A498 renal
NCI-H23 lung = test system: NCI-H23 lung
ACHN renal = test system: ACHN renal
NCI/ADR-RES ovarian = test system: NCI/ADR-RES ovarian
COLO 205 colon = test system: COLO 205 colon
SK-MEL-28 melanoma = test system: SK-MEL-28 melanoma
HS 578T breast = test system: HS 578T breast
UACC-62 melanoma = test system: UACC-62 melanoma
SNB-75 CNS = test system: SNB-75 CNS
SF-539 CNS = test system: SF-539 CNS
HT29 colon = test system: HT29 colon

## Cc1nc2cc(-n3c(-c4ccc(F)cc4)nc4ccccc4c3=O)ccc2n1Cc1ccccc1
MDA-MB-435
  GI50: 1.98 µM
  TGI: 4.21 µM
BT-549 breast
  GI50: 1.71 µM
  TGI: 3.48 µM
SNB-19 CNS
  GI50: 4.57 µM
  TGI: 26.8 µM
DU-145 prostate
  GI50: 2.6 µM
  TGI: 6.95 µM
HOP-92 NSCLC
  GI50: 2.47 µM
  TGI: 8.25 µM
IGROV1 ovarian
  GI50: 5.9 µM
  TGI: 31.2 µM
SR leukemia
  GI50: 2.7 µM
  TGI: > 100 µM
SF-295 CNS
  GI50: 2.32 µM
  TGI: 5.73 µM
HCT-116 colon
  GI50: 1.57 µM
  TGI: 3.39 µM
EKVX NSCLC
  GI50: 6.28 µM
  TGI: 49.9 µM
M14 melanoma
  GI50: 2.13 µM
  TGI: 4.62 µM
UACC-257 melanoma
  GI50: 2.64 µM
  TGI: 6.68 µM
A549 NSCLC
  GI50: 2.02 µM
  TGI: 4.66 µM
OVCAR-4 ovarian
  GI50: 2.24 µM
  TGI: 5.26 µM
SF-268 CNS
  GI50: 2.83 µM
  TGI: 10.1 µM
KM12 colon
  GI50: 3.12 µM
  TGI: 15.7 µM
T-47D breast
  GI50: 1.7 µM
  TGI: 4.22 µM
MDA-MB-231 breast
  GI50: 1.91 µM
  TGI: 5.09 µM
HL-60(TB) leukemia
  GI50: 13 µM
  TGI: > 100 µM
SK-MEL-2 melanoma
  GI50: 2.32 µM
  TGI: 8.6 µM
CAKI-1 renal
  GI50: 1.89 µM
  TGI: 4.51 µM
NCI-H522 lung
  GI50: 1.94 µM
  TGI: 6.49 µM
786-0 renal
  GI50: 1.86 µM
  TGI: 3.62 µM
SK-OV-3 ovarian
  GI50: 3.55 µM
  TGI: 13.8 µM
CCRF-CEM leukemia
  GI50: 8.34 µM
  TGI: > 100 µM
SK-MEL-5 melanoma
  GI50: 2.67 µM
  TGI: 9.07 µM
NCI-H226 lung
  GI50: 2.02 µM
  TGI: 6.51 µM
OVCAR-5 ovarian
  GI50: 5.48 µM
  TGI: 24.1 µM
MALME-3M melanoma
  GI50: 2.36 µM
  TGI: 5.36 µM
HCT-15 colon
  GI50: 2.94 µM
  TGI: 11.6 µM
RPMI-8226 leukemia
  GI50: 5.58 µM
  TGI: 39.7 µM
LOX IMVI melanoma
  GI50: 1.97 µM
  TGI: 4.59 µM
OVCAR-8 ovarian
  GI50: 2.31 µM
  TGI: 6.06 µM
TK-10 renal
  GI50: 2.73 µM
  TGI: 7.17 µM
MOLT-4 leukemia
  GI50: 3.52 µM
  TGI: > 100 µM
HOP-62 NSCLC
  GI50: 2.44 µM
  TGI: 6.98 µM
OVCAR-3 ovarian
  GI50: 2.35 µM
  TGI: 5.2 µM
NCI-H460 lung
  GI50: 2.01 µM
  TGI: 4.09 µM
UO-31 renal
  GI50: 2.15 µM
  TGI: 8.42 µM
RXF 393 renal
  GI50: 1.89 µM
  TGI: 4.26 µM
PC-3 prostate
  GI50: 1.96 µM
  TGI: 5.3 µM
SW-620 colon
  GI50: 3.16 µM
  TGI: 19.2 µM
U251 CNS
  GI50: 2.19 µM
  TGI: 5.18 µM
HCC-2998 colon
  GI50: > 100 µM
  TGI: > 100 µM
MCF7 breast
  GI50: 2.24 µM
  TGI: 5.56 µM
A498 renal
  GI50: 2.23 µM
  TGI: 11.6 µM
NCI-H23 lung
  GI50: 4.23 µM
  TGI: 37.6 µM
ACHN renal
  GI50: 2.05 µM
  TGI: 4.63 µM
NCI/ADR-RES ovarian
  GI50: 1.85 µM
  TGI: 4.56 µM
COLO 205 colon
  GI50: 2.11 µM
  TGI: 5.1 µM
SK-MEL-28 melanoma
  GI50: 2 µM
  TGI: 3.94 µM
HS 578T breast
  GI50: 2.68 µM
  TGI: 8.6 µM
UACC-62 melanoma
  GI50: 2.8 µM
  TGI: 9.79 µM
SNB-75 CNS
  GI50: 1.49 µM
  TGI: 3.6 µM
SF-539 CNS
  GI50: 1.91 µM
  TGI: 3.79 µM
HT29 colon
  GI50: 2.23 µM
  TGI: 4.71 µM
